According to patent US12448624B2, “Modified nucleic acid having improved treatment efficacy, and anticancer pharmaceutical composition containing same” (INTEROLIGO CORPORATION, priority 2018, dated 2025):
Each block holds one molecule with its values, some of them ahead of it. {Gem} = gemcitabine nucleotide residue

Tests used:
in vivo = details: rat, iv
Procedure: Sprague-Dawley male rats were subjected to induced anesthesia with isoflurane, which is an inhalation anesthetic, then a polyethylene (PE) tube (Clay Adams, Becton Dickinson, NJ, USA) was inserted into a carotid artery (for blood collection) and sutured with a suture, followed by fixing an end of the suture behind the neck. During surgery, anesthesia was maintained using ether and about 0.5 mL of physiological saline containing heparin (20 units/mL) was injected to prevent blood from clotting in a cannula. After the surgery is finished, the rats were placed in metabolic cages and allowed to recover completely from the anesthetic condition (4 to 5 hours), respectively. […] 1 and 2 ml/kg of drugs were administered intravenously. […] 5. 15. 30, 45, 60, 120, 360 and 720 minutes after the administration, 0.3 mL of blood was each collected through a […]. […] Then, the blood in the Eppendorf tube was immediately centrifuged, followed by storing the plasma.
All analytical procedures were implemented under conditions of shielding the tube. That is, all procedures were performed under quantification condition: SRM (selected reaction monitoring) mode (see Table 5 above), fixed phase condition: Hypersil gold C18, 1.9 μm, 100×2.1 mm^2 (Thermo Scientific, Matriks, Oslo, Norway), and mobile phase condition: distilled water (A) containing 0.1% formic acid and acetonitrile (B) (see Table 6 above).
Metformin as an internal standard substance (IS) was dissolved in acetonitrile to prepare another working solution of 645 ng/mL.
150 μL of the internal standard, that is, metformin was added to 50 μL of plasma (645 ng/mL in acetonitrile) and vortexed for 10 minutes, followed by performing centrifugation at 15,000 rpm and […] for 20 minutes. Thereafter, 150 μL of the supernatant was taken and transferred to another Eppendorf tube, and then the organic solvent was dried under a nitrogen stream. Then, 125 μL of tertiary distilled water was added to the dried Eppendorf tube, allowed to be redissolved. Then, the solution was vortexed for 5 minutes, centrifuged at 15,000 rpm and […] for 5 minutes. Thereafter, 100 μL of the supernatant was transferred to the vial for LC-MS/MS, 5 μL of the supernatant was injected and analyzed by LC-MS/MS.
Values of an area under the plasma concentration-time curve (AUCt) were calculated using a log-linear trapezoidal equation from the plasma concentration-time curves after the administration of drug to the final quantification time (specifically, the linear-trapezoidal equation is used in a section where the plasma concentration is increased, while in another section where plasma concentration is decreased, the trapezoidal equation is used by log transforming the concentration value). After oral administration, the highest plasma concentration (Cmax) and the time to reach the highest plasma concentration (Tmax) were determined from the plasma concentration-time curve. Values of the area (AUCinf) under the plasma concentration till infinite time-time curve were determined using the following equation. A terminal elimination rate constant (γZ) and half-life (t1/2) were determined from a slope of elimination of the plasma concentration. AUinf=AUCt+Ct/γZ(Ct: final quantification concentration, γZ: terminal elimination rate constant)

[1] = tested on: patient-derived pancreatic cancer cells; experiment: PDX pancreatic cancer mouse model, TUNEL analysis; assay type: in vivo; details: 1 month after implantation
[2] = Stability of atelocollagen/collagen disk formulations in rat plasma; assay type: in vitro ADME; details: 37° C.
Procedure: Sample treatment, calibration curve creation, and LC-MS/MS analysis conditions are the same as described above.
Sample treatment was conducted as follows. […] Thereafter, the supernatant was taken and then centrifuged again under the same conditions as above. Then, 5 μL of the concentrate was taken and diluted by 10-fold using the same rat plasma in order to measure a concentration in plasma (“plasma concentration”). […] The above sample treatment was conducted in the same manner as the calibration curve creation, followed by performing sample analysis under the same LC-MS/MS conditions.
In order to evaluate the stability of the IO101L/atelocollagen disk formulation in rat plasma, experiments were conducted with 5 groups (Groups 1-5) (see Table 12 below). Normal collagen (SK Co.) was used for comparison with atelocollagen.

[3] = mouse, in vivo
Procedure: Male […]/severe combined immunodeficiency mice, NOD/Shi-scid, IL-2RγKO mice (NOG mice®) (Central Lab Animal Inc., Saeronbio Inc., Seoul) and female nu/nu athymic mice (Orientbio) were maintained in 12 hours light/12 hours dark cycle under pathogen-free conditions. At the time of surgery, 10 new pancreatic tumor specimens stored in the patient's primary tumor (Institutional Examination Committee No. 4-2017-0594) was placed on ice-cooled RPMI medium, PDX SOP of PDTX Cleanbench Department Laboratory Animal Resources (Yonsei Biomedical Research Institute, Seoul) was washed with cold PBS, and non-necrotic fragments were cut into small pieces (2×2×2 mm) to remove blood or lipid portions. […]
After skin incision in PDX mice, the control (No treatment), Gem-IP (; sol-gel type), IO101-IP (; sol-gel type), IO101/AC disk (2.0 mg/3.0%), IO101-Con/AC (2.0 mg/3.0%) and Gem/atelocollagen disk (0.12 mg/3.0%), respectively, were implanted locally by subcutaneous anesthetic dissection between skin and tumor. A tumor size was measured three times per week by caliper measurement (Mitutoyo, Absolute AOS Digmatic, Kawasaki, Japan), and a volume was calculated as described above. Tumor growth in drug-treated animals was expressed as a tumor growth rate (tumor volume/initial tumor volume) compared to vehicle-treated mice. […]

[4] = In vitro stability: dFdC and dFdU in plasma by LC-MS/MS; assay type: in vitro ADME; details: rat plasma
Procedure: From the chromatogram obtained by the established LC-MS/MS assay method, peak area ratios of dFdC, dFdU and dFdCTP to a peak area of the internal standard substance were estimated, followed by calculating a concentration in the mouse plasma and a concentration in tissues from a previously created calibration curve.
1 mL of mouse blood was collected and placed in a 1.5 mL Eppendorf tube containing 10 μL of 10 mg/mL (in DW) tetrahydrouridine (THU). After centrifugation under conditions of 14,000 rpm and 4° C. for 2 minutes using a centrifuge, only plasma was taken and transferred to another vial and stored at −80° C. After transferring 50 μL of plasma to a 1.5 mL amber Eppendorf tube, 150 μL of an internal standard substance (meltform 1.29 μg/mL in ACN) was added and vortexed for 10 minutes. Centrifugation was conducted using a centrifuge under conditions of 14,000 rpm and 4° C. for 20 minutes. In the centrifuged tube, 150 μL of sample was transferred to another 1.5 mL amber Eppendorf tube. An organic solvent was dried using a GeneVac EZ-2 automated evaporation system (GeneVac Ltd., Ipswich, UK). (GeneVac HPLC mode, max temperature 35° C., 1 hr). The organic solvent was reconstituted by adding 125 μL DW to a 1.5 mL dried amber Eppendorf tube. After vortexing for 5 minutes, centrifugation was conducted using a centrifuge under conditions of 14,000 rpm and 4° C. for 5 minutes. The supernatant of the centrifuged solution was added in an amount of 100 μL to each vial for LC-MS/MS using a PTFE (hydrophilic) 0.2 μm syringe filter (Toyo Toshi, Japan). Specifically, 5 μL of the supernatant was injected into each LC-MS/MS.
Chromatography was performed using an Agilent 1200 series separation module (Agilent Technologies, Waldbronn, Germany). […] An injection volume was 5 μL, a mobile phase was a gradient eluent system [A: 100% ACN, B: 0.1% formic acid in DW], and a total running time was 20 minutes. A calibration range was set to be 20 to 5,000 ng/mL.
Each sample was treated according to the above 2-1-1 and 2-1-2, and a ratio of dFdC/dFdU in rat plasma was measured in regard to the compound types of (Gem)x-[TGG]m[TTG][TGG]n.

[5] = tested on: BxPC3 (pancreatic cancer); experiment: Cell proliferation inhibition (MTT), BxPC3; assay type: cell-based; details: MTT assay, 3 days
Procedure: (§1) 2.5 to 5.0×10^5 cells/well, which is the cell number defined by cell test to determine the appropriate cell concentration in the pancreatic cancer cell line B x PC3 cell (ATCC, IMDM+10% PBS), were seeded in a 96 well plate and incubated for one day. […] The treated BxPC3 cells were incubated in a 5% CO2 incubator for 3 days, treated with 20 μL of reagent solution for MTT assay (Cell Proliferation KitII, Roche), and then incubated hourly (10 minutes, 30 minutes, 60 minutes), followed by measuring absorbance at 490 nm by a reader through ELISA (See FIGS. 28 and 29).
(§2) Cell proliferation inhibitory efficacy against other cell lines MD-MBA 231 (breast cancer), Uuh-7 (liver cancer), HT29 (colon cancer) and Mv4-11 (AML) was also verified in the same manner as described above.

[6] = tested on: BxPC3, PANC-1, Miapaca-2, and Capan-1; experiment: Cell survival (WST-1) of pancreatic cancer cell lines; assay type: cell-based; details: WST-1, 48 hours, 100 nM to 100 μM, all four pancreatic cancer cell lines
Procedure: BxPC3, PANC-1, Miapaca-2, and Capan-1 were cultured as pancreatic cancer cell lines, respectively. When the cells were stable after several subcultures, 1×10^3 cells were seeded in 96 well plates to verify drug effects. On the next day, IO101, IO100, IO100-Con, IO101-Con and Gem at the highest concentration of 100 μM were diluted by 1/10 per each well, and prepared at a concentration of 4 points up to 100 nM. Then, the cells seeding in the 96 well plates were treated using the above prepared variants. After 48 hours, 10 μl of WST-1 solution was added to the wells and incubated in a 37° C. incubator for 1 hour. Subsequently, each sample was measured at 440 nm in a micro plate reader (VERSA Max). After calculation of the measured values, a cell survival rate graph for each treatment concentration was drawn up.

[7] = tested on: MD-MBA 231 (breast cancer); experiment: Cell proliferation inhibition (MTT), MD-MB231; assay type: cell-based; details: MTT assay, 3 days
Procedure: as §1, §2

Molecule: Nc1ccn([C@@H]2O[C@H](CO)[C@@H](O)C2(F)F)c(=O)n1 [Gemcitabine, 2,2′-difluorodeoxycytidine]
AUC(0-inf) (in vivo; male, Sprague-Dawley, 8 mg/kg): 24500 ng·h/mL | AUC(0-t) (in vivo; male, Sprague-Dawley, 8 mg/kg): 23200 ng·h/mL | Cmax (in vivo; male, Sprague-Dawley, 8 mg/kg): 13300 ± 5640 ng/mL | MRT (in vivo; male, Sprague-Dawley, 8 mg/kg): 3.48 h | Tmax (in vivo; male, Sprague-Dawley, 8 mg/kg): 1 min | Vd (in vivo; male, Sprague-Dawley, 8 mg/kg): 1.15 ± 0.223 L/kg | clearance (in vivo; male, Sprague-Dawley, 8 mg/kg): 5.59 ± 0.86 mL/min/kg | dFdU AUCt (in vivo; male, Sprague-Dawley, 8 mg/kg): 265 ± 57.1 µg·min/mL | dFdU Cmax (in vivo; male, Sprague-Dawley, 8 mg/kg): 477 ± 87.9 ng/mL | dFdU Tmax (in vivo; male, Sprague-Dawley, 8 mg/kg): 240 (120-360) min | half-life (in vivo; male, Sprague-Dawley, 8 mg/kg): 2.95 ± 0.475 h | concentration at 30 min (in vivo; male, Sprague-Dawley, Gemcitabine blood concentration, 30 minutes): 5600 ng/mL | concentration at 45 min (in vivo; male, Sprague-Dawley, Gemcitabine blood concentration, 45 minutes): 3410 ng/mL | concentration at 60 min (in vivo; male, Sprague-Dawley, Gemcitabine blood concentration, 60 minutes): 3550 ng/mL | concentration at 120 min (in vivo; male, Sprague-Dawley, Gemcitabine blood concentration, 120 minutes): 2800 ng/mL | dFdU blood concentration, 1 minute (in vivo): BLLoQ | dFdU blood concentration, 5 minutes (in vivo): BLLoQ | apoptosis (TUNEL analysis) in tumor [1]: an apoptosis process was confirmed | dFdC Blood concentration ([2]; 2 hours incubation): 218 µg/mL | dFdC Blood concentration, supernatant ([2]; supernatant (Ultracell-3K), 2 hours): 232 µg/mL | PLT [3]: 684.1 ± 246.3 X1000/μl

Molecule: (Gem)2-[TGG]1[TTG][TGG]1 [compound 1]
dFdC/dFdU ratio [4]: 1.76

Molecule: (Gem)2-[TGG]1[TTG][TGG]2 [compound 2]
dFdC/dFdU ratio [4]: 2.01

Molecule: (Gem)2-[TGG]2[TTG][TGG]1 [compound 3]
dFdC/dFdU ratio [4]: 2.20

Molecule: (Gem)2-[TGG]2[TTG][TGG]2 [compound 4]
dFdC/dFdU ratio [4]: 2.61

Molecule: (Gem)2-[TGG]2[TTG][TGG]3 [compound 5]
dFdC/dFdU ratio [4]: 2.79

Molecule: (Gem)2-[TGG]3[TTG][TGG]2 [compound 6]
dFdC/dFdU ratio [4]: 2.84

Molecule: (Gem)2-[TGG]3[TTG][TGG]3 [compound 7]
dFdC/dFdU ratio [4]: 3.29

Molecule: (Gem)2-[TGG]3[TTG][TGG]4 [compound 8]
dFdC/dFdU ratio [4]: 3.80

Molecule: (Gem)2-[TGG]4[TTG][TGG]4 (DNA TGGTGGTGGTGGTTGTGGTGGTGGTGG; two 5' gemcitabine residues, chemistry not fully specified) [compound 10, gemcitabine-containing oligonucleotide variant]
IC50 [5]: 8.9 nM | dFdC/dFdU ratio [4]: 12.00 | pancreatic cancer cell growth inhibition (cell survival rate) [6]: effectively inhibits pancreatic cancer cell growth in proportion to a drug concentration | IC50 [7]: 18 nM

Molecule: (Gem)2-[TGG]4[TTG][TGG]5 (DNA TGGTGGTGGTGGTTGTGGTGGTGGTGGTGG; DNA, 5' {Gem}-{Gem}, backbone not given here) [compound 11, gemcitabine-containing oligonucleotide variant]
IC50 [5]: 8.5 nM | dFdC/dFdU ratio [4]: 14.10 | dFdU Tmax (in vivo): 360 min | pancreatic cancer cell growth inhibition (cell survival rate) [6]: pancreatic cancer cell growth was effectively inhibited | IC50 [7]: 15 nM

Now from value to molecule:

dFdC/dFdU ratio [4]: 6.04
Molecule: (Gem)2-[TGG]4[TTG][TGG]3 [compound 9]

dFdC/dFdU ratio [4]: 13.63
Molecule: (Gem)2-[TGG]5[TTG][TGG]4 [compound 12]

dFdC/dFdU ratio [4]: 11.85
Molecule: (Gem)2-[TGG]5[TTG][TGG]5 [compound 13]

dFdC/dFdU ratio [4]: 11.59
Molecule: (Gem)2-[TGG]5[TTG][TGG]6 [compound 14]

dFdC/dFdU ratio [4]: 13.67
Molecule: (Gem)2-[TGG]6[TTG][TGG]5 [compound 15]

dFdC/dFdU ratio [4]: 13.59
Molecule: (Gem)2-[TGG]6[TTG][TGG]6 [compound 16]
